Source: US5438052A, “Cephalosporin derivatives” (Hoffmann-La Roche Inc., priority 1991, dated 1995)
≈ marks a conversion by molar mass, not a printed value. Where a name gives a salt, the structure may show the parent alone. Read-outs that look alike come from different tables or passages of the source.

Assays:
E. coli 25922 [1] = experiment: Experimental systemic septicaemia in the mouse; type: in vivo; conditions: 96 h
How it was run: (§1)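 ED50 in mg/kg s.c. is the Probit-derived dose protecting half the mice, judged on survival 4 days after i.p. challenge (about 5-100× 48 h LD50) in 16-20 g albino mice, 5 per group. Dosing was s.c. in 2% Tween 80 at 1 and 3 h, plus 5 h for P. aeruginosa.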

[2] = tested on: Pseudomonas aeruginosa BA; experiment: Experimental systemic septicaemia in the mouse; type: in vivo; conditions: sc, 96 h
How it was run: as §1

S. aureus Schoch = experiment: Experimental systemic septicaemia in the mouse; type: in vivo; conditions: Staphylococcus aureus, sc, 96 h
How it was run: as §1

E. coli 25922 [3] = experiment: Minimum inhibitory concentration in vitro, agar dilution method; type: cell-based; conditions: Escherichia coli
From the text: (§2) 1. Minimum Inhibitory Concentration in vitro
(§3) The activities ascertained, minimum inhibitory concentration (MIC) in μg/ml, are compiled in Table 1 hereinafter: […]

P. aeruginosa BA = experiment: as above; type: cell-based; conditions: Pseudomonas aeruginosa
From the text: as §2, §3

E. cloacae 908R = experiment: as above; type: cell-based; conditions: Enterobacter cloacae
From the text: as §2, §3

S. marcescens 69438 = experiment: as above; type: cell-based; conditions: Serratia marcescens
From the text: as §2, §3

P. vulgaris 1028 = experiment: as above; type: cell-based; conditions: Proteus vulgaris
From the text: as §2, §3

K. oxytoca 1082 = experiment: as above; type: cell-based; conditions: Klebsiella oxytoca
From the text: as §2, §3

P. aeruginosa 27853 = experiment: as above; type: cell-based; conditions: Pseudomonas aeruginosa
From the text: as §2, §3

E. cloacae P99 = experiment: as above; type: cell-based; conditions: Enterobacter cloacae
From the text: as §2, §3

S. pyogenes 15 = experiment: as above; type: cell-based; conditions: Streptococcus pyogenes
From the text: as §2, §3

P. mirabilis 2117 = experiment: as above; type: cell-based; conditions: Proteus mirabilis
From the text: as §2, §3

K. pneumoniae 418 = experiment: as above; type: cell-based; conditions: Klebsiella pneumoniae
From the text: as §2, §3

C. freundii 902 = experiment: as above; type: cell-based; conditions: Citrobacter freundii
From the text: as §2, §3

P. aeruginosa 799/WT = experiment: as above; type: cell-based; conditions: Pseudomonas aeruginosa
From the text: as §2, §3

P. aeruginosa 799/61 = experiment: as above; type: cell-based; conditions: Pseudomonas aeruginosa
From the text: as §2, §3

S. aureus 6538 = experiment: as above; type: cell-based; conditions: Staphylococcus aureus
From the text: as §2, §3

E. cloacae 908SSi = experiment: as above; type: cell-based; conditions: Enterobacter cloacae
From the text: as §2, §3

P. aeruginosa MK1184 = experiment: as above; type: cell-based; conditions: Pseudomonas aeruginosa
From the text: as §2, §3

S. pneumoniae BA = experiment: as above; type: cell-based; conditions: Streptococcus pneumoniae
From the text: as §2, §3

E. aerogenes CF153 = experiment: as above; type: cell-based; conditions: Klebsiella aerogenes; E. aerogenes CF153, agar dilution; read-out: MIC
From the text: as §2, §3

[4] = Escherichia coli, sc, E. coli 25922, albino mice, s.c. 1 and 3 hours after infection, survival after 4 days, read-out: ED50
[5] = P. aeruginosa BA, albino mice, s.c. 1, 3 and 5 hours after infection, survival after 4 days, read-out: ED50
[6] = E. coli 25922, agar dilution, read-out: MIC
[7] = P. aeruginosa BA, agar dilution, read-out: MIC
[8] = E. cloacae 908R, agar dilution, read-out: MIC
[9] = S. marcescens 69438, agar dilution, read-out: MIC
[10] = P. vulgaris 1028, agar dilution, read-out: MIC
[11] = K. oxytoca 1082, agar dilution, read-out: MIC
[12] = P. aeruginosa 27853, agar dilution, read-out: MIC
[13] = S. pyogenes 15, agar dilution, read-out: MIC
[14] = P. mirabilis 2117, agar dilution, read-out: MIC
[15] = K. pneumoniae 418, agar dilution, read-out: MIC
[16] = C. freundii 902, agar dilution, read-out: MIC
[17] = P. aeruginosa 799/WT, agar dilution, read-out: MIC
[18] = P. aeruginosa 799/61, agar dilution, read-out: MIC
[19] = S. aureus 6538, agar dilution, read-out: MIC
[20] = E. cloacae 908SSi, agar dilution, read-out: MIC
[21] = P. aeruginosa MK1184, agar dilution, read-out: MIC

Cc1cc(SCC2=C(C(=O)O)N3C(=O)[C@@H](NC(=O)/C(=N\OCc4ccc(O)c(O)c4F)c4csc(N)n4)[C@H]3SC2)n2nc(CNS(=O)(=O)c3ccc(O)c(O)c3)nc2n1 [Example 5, 7-[(Z)-2-(2-amino-4-thiazolyl)-2-[[(2-fluoro-3,4-dihydroxybenzyl)oxy]imino]acetamido]-3-[[[2-[(3,4-dihydroxybenzenesulphonamido)methyl]-5-methyl-s-triazolo[1,5-a]pyrimidin-7-yl]thio]methyl]-8-oxo-5-thia-1-azabicyclo[4.2.0]oct-2-ene-2-carboxylic acid sodium salt (1:1)]
ED50 (E. coli 25922 [1]; [4]): < 0.1 mg/kg | ED50 [2, 5]: 0.034 mg/kg | ED50 (S. aureus Schoch; S. aureus Schoch, albino mice, s.c. 1 and 3 hours after infection, survival after 4 days, read-out: ED50): 3.1 mg/kg | MIC (E. coli 25922 [3]; [6]): < 0.1 µg/mL | MIC (P. aeruginosa BA; [7]): 0.12 µg/mL | MIC (E. cloacae 908R; [8]): 0.25 µg/mL | MIC (S. marcescens 69438; [9]): < 0.1 µg/mL | MIC (P. vulgaris 1028; [10]): 0.5 µg/mL | MIC (K. oxytoca 1082; [11]): 0.25 µg/mL | MIC (P. aeruginosa 27853; [12]): 0.12 µg/mL | MIC (E. cloacae P99): 4 µg/mL | MIC (S. pyogenes 15; [13]): 0.5 µg/mL | MIC (P. mirabilis 2117; [14]): 0.25 µg/mL | MIC (K. pneumoniae 418; [15]): < 0.1 µg/mL | MIC (C. freundii 902; [16]): < 0.1 µg/mL | MIC (P. aeruginosa 799/WT; [17]): < 0.1 µg/mL | MIC (P. aeruginosa 799/61; [18]): < 0.1 µg/mL | MIC (S. aureus 6538; [19]): 4 µg/mL | MIC (E. cloacae 908SSi; [20]): 1 µg/mL | MIC (P. aeruginosa MK1184; [21]): < 0.1 µg/mL

Cc1cc(SCC2=C(C(=O)[O-])N3C(=O)[C@@H](NC(=O)/C(=N\OC(C)(C)C(=O)NNC(=O)c4ccc(O)c(O)c4)c4csc(N)n4)[C@H]3SC2)n2nc(CNS(=O)(=O)c3ccc(O)c(O)c3)nc2n1.[Na+] [Example 42, (6R,7R)-7-[(Z)-2-(2-amino-4-thiazolyl)-2-[[1-[3-(3,4-dihydroxybenzoyl)carbazoyl]-1-methylethoxy]imino]acetamido]-3-[[[2-[(3,4-dihydroxybenzenesulphonamido)methyl]-5-methyl-s-triazolo[1,5-a]pyrimidin-7-yl]thio]methyl]-8-oxo-5-thia-1-azabicyclo[4.2.0]oct-2-ene-2-carboxylic acid sodium salt (1:1)]
ED50 (E. coli 25922 [1]; Escherichia coli, 25922, sc): 0.005 mg/kg | ED50 [2]: 0.017 mg/kg | ED50 (S. aureus Schoch): 10 mg/kg | MIC (E. coli 25922 [3]; 25922): < 0.1 µg/mL | MIC (P. aeruginosa BA): < 0.1 µg/mL | MIC (E. cloacae 908R; 908R): 0.5 µg/mL | MIC (S. marcescens 69438; 69438): 0.12 µg/mL | MIC (P. vulgaris 1028; 1028): 0.25 µg/mL | MIC (K. oxytoca 1082; 1082): < 0.1 µg/mL | MIC (P. aeruginosa 27853; 27853): 0.25 µg/mL | MIC (S. pyogenes 15; 15): 8 µg/mL | MIC (S. pneumoniae BA): 4 µg/mL | MIC (P. mirabilis 2117; 2117): 0.12 µg/mL | MIC (K. pneumoniae 418; 418): < 0.1 µg/mL | MIC (C. freundii 902; 902): < 0.1 µg/mL | MIC (P. aeruginosa 799/WT; 799/WT): < 0.1 µg/mL | MIC (P. aeruginosa 799/61; 799/61): < 0.1 µg/mL | MIC (S. aureus 6538; 6538): 32 µg/mL | MIC (E. cloacae 908SSi; 908SSI): 4 µg/mL | MIC (P. aeruginosa MK1184; MK1184): < 0.1 µg/mL

Cc1cc(SCC2=C(C(=O)[O-])N3C(=O)[C@@H](NC(=O)/C(=N\OCc4ccc(O)c(O)c4)c4csc(N)n4)[C@H]3SC2)n2nc(COC(=O)c3ccc(O)c(O)c3)nc2n1.[Na+] [Example 8, (6R,7R)-7-[(Z)-2-(2-amino-4-thiazolyl)-2-[[(3,4-dihydroxybenzyl)oxy]imino]acetamido]-3-[[[2-[[(3,4-dihydroxybenzoyl)oxy]methyl]-5-methyl-s-triazolo[1,5-a]pyrimidin-7-yl]thio]methyl]-8-oxo-5-thia-1-azabicyclo[4.2.0]oct-2-ene-2-carboxylic acid sodium salt (1:1)]
ED50 (E. coli 25922 [1]; Escherichia coli, 25922, sc): < 0.1 mg/kg | ED50 [2]: 0.45 mg/kg | ED50 (S. aureus Schoch): 2 mg/kg | MIC (E. coli 25922 [3]; 25922): < 0.1 µg/mL | MIC (P. aeruginosa BA): < 0.1 µg/mL | MIC (E. cloacae 908R; 908R): 0.25 µg/mL | MIC (S. marcescens 69438; 69438): 0.12 µg/mL | MIC (P. vulgaris 1028; 1028): < 0.1 µg/mL | MIC (K. oxytoca 1082; 1082): < 0.1 µg/mL | MIC (P. aeruginosa 27853; 27853): 0.12 µg/mL | MIC (E. cloacae P99): 8 µg/mL | MIC (S. pyogenes 15; 15): 1 µg/mL | MIC (P. mirabilis 2117; 2117): < 0.1 µg/mL | MIC (K. pneumoniae 418; 418): < 0.1 µg/mL | MIC (C. freundii 902; 902): < 0.1 µg/mL | MIC (P. aeruginosa 799/WT; 799/WT): < 0.1 µg/mL | MIC (P. aeruginosa 799/61; 799/61): < 0.1 µg/mL | MIC (S. aureus 6538; 6538): 4 µg/mL | MIC (E. cloacae 908SSi; 908SSI): 2 µg/mL | MIC (P. aeruginosa MK1184; MK1184): < 0.1 µg/mL

Cc1ncc(-c2ccc(O)c(O)c2)c(SCC2=C(C(=O)O)N3C(=O)[C@@H](NC(=O)/C(=N\OC(C)(C)C(=O)NO)c4csc(N)n4)[C@H]3SC2)n1 [Example 19b]
ED50 (E. coli 25922 [1]; [4]): 0.78 mg/kg | ED50 [2, 5]: > 3 mg/kg | MIC (E. coli 25922 [3]; [6]): < 0.1 µg/mL | MIC (P. aeruginosa BA; [7]): 0.5 µg/mL (≈ 0.698 µM) | MIC (E. cloacae 908R; [8]): 2 µg/mL (≈ 2.79 µM) | MIC (S. marcescens 69438; [9]): < 0.1 µg/mL | MIC (P. vulgaris 1028; [10]): < 0.1 µg/mL | MIC (K. oxytoca 1082; [11]): 0.5 µg/mL (≈ 0.698 µM) | MIC (P. aeruginosa 27853; [12]): 0.25 µg/mL (≈ 0.349 µM) | MIC (E. cloacae P99): 8 µg/mL (≈ 11.2 µM) | MIC (S. pyogenes 15; [13]): 0.25 µg/mL (≈ 0.349 µM) | MIC (P. mirabilis 2117; [14]): 0.25 µg/mL (≈ 0.349 µM) | MIC (K. pneumoniae 418; [15]): < 0.1 µg/mL | MIC (C. freundii 902; [16]): < 0.1 µg/mL | MIC (P. aeruginosa 799/WT; [17]): 0.25 µg/mL (≈ 0.349 µM) | MIC (E. aerogenes CF153): < 0.1 µg/mL | MIC (P. aeruginosa 799/61; [18]): < 0.1 µg/mL | MIC (S. aureus 6538; [19]): 16 µg/mL (≈ 22.3 µM) | MIC (E. cloacae 908SSi; [20]): 2 µg/mL (≈ 2.79 µM) | MIC (P. aeruginosa MK1184; [21]): 8 µg/mL (≈ 11.2 µM)
